Reference: patent publication US20080161289A1, “Fused Thiazole Derivatives Having Affinity for the Histamine H3 Receptor” (Glaxo Group Limited, priority 2005, published 2008)

Target: T1, histamine H3 receptors (Homo sapiens, UniProt Q9Y5N1)
T1 construct: expressed in transfected cells; host or cells: CHO K1 cells carrying pSwitch, transfected with pGeneH3, induced with mifepristone; clone 3H3; membrane preparation
Test: Histamine H3 functional antagonist assay ([35S]-GTPγS SPA on membranes from H3 cells)
Assay type: biochemical
Conditions: hydrochloride salts tested; H3 functional antagonist assay using membrane prepared from cultured H3 cells; averages of a number of experiments; read-out: functional pKi (fpKi) (converted)
From the text: A membrane preparation containing histamine H3 receptors may be prepared in accordance with the following procedures:
(i) Generation of Histamine H3 Cell Line
DNA encoding the human histamine H3 gene (Huvar, A. et al. (1999) Mol. Pharmacol. 55(6), 1101-1107) was cloned into a holding vector, pCDNA3.1 TOPO (InVitrogen) and its cDNA was isolated from this vector by restriction digestion of plasmid DNA with the enzymes BamHI and Not-1 and ligated into the inducible expression vector pGene (InVitrogen) digested with the same enzymes. The GeneSwitch™ system (a system where in transgene expression is switched off in the absence of an inducer and switched on in the presence of an inducer) was performed as described in U.S. Pat. Nos. 5,364,791; 5,874,534; and 5,935,934. Ligated DNA was transformed into competent DH5α E. coli host bacterial cells and plated onto Luria Broth (LB) agar containing Zeocin™ (an antibiotic which allows the selection of cells expressing the sh ble gene which is present on pGene and pSwitch) at 50 μg ml^−1. Colonies containing the re-ligated plasmid were identified by restriction analysis. DNA for transfection into mammalian cells was prepared from 250 ml cultures of the host bacterium containing the pGeneH3 plasmid and isolated using a DNA preparation kit (Qiagen Midi-Prep) as per manufacturers guidelines (Qiagen).
CHO K1 cells previously transfected with the pSwitch regulatory plasmid (InVitrogen) were seeded at 2×10e6 cells per T75 flask in Complete Medium, containing Hams F12 (GIBCOBRL, Life Technologies) medium supplemented with 10% v/v dialysed foetal bovine serum, L-glutamine, and hygromycin (100 μg ml^−1), 24 hours prior to use. Plasmid DNA was transfected into the cells using Lipofectamine plus according to the manufacturers guidelines (InVitrogen). 48 hours post transfection cells were placed into complete medium supplemented with 500 μg ml^−1 Zeocin™.
10-14 days post selection 10 nM Mifepristone (InVitrogen), was added to the culture medium to induce the expression of the receptor. 18 hours post induction cells were detached from the flask using ethylenediamine tetra-acetic acid (EDTA; 1:5000; InVitrogen), following several washes with phosphate buffered saline pH 7.4 and resuspended in Sorting Medium containing Minimum Essential Medium (MEM), without phenol red, and supplemented with Earles salts and 3% Foetal Clone II (Hyclone). Approximately 1×10e7 cells were examined for receptor expression by staining with a rabbit polyclonal antibody, 4a, raised against the N-terminal domain of the histamine H3 receptor, incubated on ice for 60 minutes, followed by two washes in sorting medium. Receptor bound antibody was detected by incubation of the cells for 60 minutes on ice with a goat anti rabbit antibody, conjugated with Alexa 488 fluorescence marker (Molecular Probes). Following two further washes with Sorting Medium, cells were filtered through a 50 μm Filcon™ (BD Biosciences) and then analysed on a FACS Vantage SE Flow Cytometer fitted with an Automatic Cell Deposition Unit. Control cells were non-induced cells treated in a similar manner. Positively stained cells were sorted as single cells into 96-well plates, containing Complete Medium containing 500 μg ml^−1 Zeocin™ and allowed to expand before reanalysis for receptor expression via antibody and ligand binding studies. One clone, 3H3, was selected for membrane preparation.
(ii) Membrane Preparation from Cultured Cells
All steps of the protocol are carried out at 4° C. and with pre-cooled reagents. The cell pellet is resuspended in 10 volumes of homogenisation buffer (50 mM N-2-hydroxyethylpiperazine-N′-2-ethanesulfonic acid (HEPES), 1 mM ethylenediamine tetra-acetic acid (EDTA), pH 7.4 with KOH, supplemented with 10e-6M leupeptin (acetyl-leucyl-leucyl-arginal; Sigma L2884), 25 μg/ml bacitracin (Sigma B0125), 1 mM phenylmethylsulfonyl fluoride (PMSF) and 2×10e-6M pepstain A (Sigma)). […]

T1 sequence (Q9Y5N1 whole entry): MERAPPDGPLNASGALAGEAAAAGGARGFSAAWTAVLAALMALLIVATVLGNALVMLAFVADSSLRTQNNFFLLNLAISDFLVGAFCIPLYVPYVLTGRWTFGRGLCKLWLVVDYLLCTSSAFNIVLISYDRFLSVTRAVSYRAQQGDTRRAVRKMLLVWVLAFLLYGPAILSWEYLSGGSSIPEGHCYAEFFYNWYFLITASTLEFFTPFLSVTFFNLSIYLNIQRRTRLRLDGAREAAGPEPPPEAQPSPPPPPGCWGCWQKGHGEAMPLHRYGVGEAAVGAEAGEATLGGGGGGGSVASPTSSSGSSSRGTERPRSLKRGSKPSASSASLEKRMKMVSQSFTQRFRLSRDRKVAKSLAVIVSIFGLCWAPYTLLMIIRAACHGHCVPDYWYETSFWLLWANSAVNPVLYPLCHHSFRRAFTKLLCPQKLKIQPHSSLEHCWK

Compound	Ki [nM]
N#Cc1ccc(N2CCC(c3nc4c(s3)CCN(C3CCC3)CC4)C2)cn1 (racemic) [Example E35, (±)-5-[3-(6-Cyclobutyl-5,6,7,8-tetrahydro-4H-[1,3]thiazolo[4,5-d]azepin-2-yl)-1-pyrrolidinyl]-2-pyridinecarbonitrile]	< 1.26
Cc1ccc(N2CCC(c3nc4c(s3)CCN(C3CCC3)CC4)C2)cn1 (racemic) [Example E38, (±)-6-Cyclobutyl-2-[1-(6-methyl-3-pyridinyl)-3-pyrrolidinyl]-5,6,7,8-tetrahydro-4H-[1,3]thiazolo[4,5-d]azepine]	< 1.26
Cc1cccc(N2CCC(c3nc4c(s3)CCN(C3CCC3)CC4)C2)n1 (racemic) [Example E114, (±)-6-Cyclobutyl-2-[1-(6-methyl-2-pyridinyl)-3-pyrrolidinyl]-5,6,7,8-tetrahydro-4H-[1,3]thiazolo[4,5-d]azepine]	< 0.316
N#Cc1ccc(N2CCC(c3nc4c(s3)CCN(C3CCC3)CC4)C2)cn1 (single isomer, unassigned; (+)) [Example E37, (+)-5-[3-(6-Cyclobutyl-5,6,7,8-tetrahydro-4H-[1,3]thiazolo[4,5-d]azepin-2-yl)-1-pyrrolidinyl]-2-pyridinecarbonitrile]	< 1.26
N#Cc1ccc(N2CCC(c3nc4c(s3)CCN(C3CCC3)CC4)C2)cn1 (single isomer, unassigned; (-)) [Example E36, (−)-5-[3-(6-Cyclobutyl-5,6,7,8-tetrahydro-4H-[1,3]thiazolo[4,5-d]azepin-2-yl)-1-pyrrolidinyl]-2-pyridinecarbonitrile]	< 0.316
FC(F)(F)c1ccc(-c2nc3c(s2)CCN(C2CCC2)CC3)cc1 [Example E1, 6-Cyclobutyl-2-[4-(trifluoromethyl)phenyl]-5,6,7,8-tetrahydro-4H-[1,3]thiazolo[4,5-d]azepine]	< 31.6
O=C1CCCN1c1ccc(-c2nc3c(s2)CCN(C2CCC2)CC3)cc1 [Example E3, 1-[4-(6-cyclobutyl-5,6,7,8-tetrahydro-4H-[1,3]thiazolo[4,5-d]azepin-2-yl)phenyl]-2-pyrrolidinone]	< 0.316
c1cc(-c2nc3c(s2)CCN(C2CCC2)CC3)ccc1-c1csnn1 [Example E5, 6-Cyclobutyl-2-[4-(1,2,3-thiadiazol-4-yl)phenyl]-5,6,7,8-tetrahydro-4H-[1,3]thiazolo[4,5-d]azepine]	< 1.26
Cc1ccc(C(=O)N2CCC(c3nc4c(s3)CCN(C3CCC3)CC4)CC2)cn1 [Example E8, 6-Cyclobutyl-2-{1-[(6-methyl-3-pyridinyl)carbonyl]-4-piperidinyl}-5,6,7,8-tetrahydro-4H-[1,3]thiazolo[4,5-d]azepine]	< 1.26
O=C(c1ccc(C(F)(F)F)nc1)N1CCC(c2nc3c(s2)CCN(C2CCC2)CC3)CC1 [Example E10, 6-Cyclobutyl-2-(1-{[6-(trifluoromethyl)-3-pyridinyl]carbonyl}-4-piperidinyl)-5,6,7,8-tetrahydro-4H-[1,3]thiazolo[4,5-d]azepine]	< 31.6
Cc1cccc(C(=O)N2CCC(c3nc4c(s3)CCN(C3CCC3)CC4)CC2)n1 [Example E11, 6-Cyclobutyl-2-{1-[(6-methyl-2-pyridinyl)carbonyl]-4-piperidinyl}-5,6,7,8-tetrahydro-4H-[1,3]thiazolo[4,5-d]azepine]	< 0.316
Cc1cnc(C(=O)N2CCC(c3nc4c(s3)CCN(C3CCC3)CC4)CC2)cn1 [Example E12, 6-Cyclobutyl-2-{1-[(5-methyl-2-pyrazinyl)carbonyl]-4-piperidinyl}-5,6,7,8-tetrahydro-4H-[1,3]thiazolo[4,5-d]azepine]	< 1.26
Cc1cncc(C(=O)N2CCC(c3nc4c(s3)CCN(C3CCC3)CC4)CC2)c1 [Example E13, 6-Cyclobutyl-2-{1-[(5-methyl-3-pyridinyl)carbonyl]-4-piperidinyl}-5,6,7,8-tetrahydro-4H-[1,3]thiazolo[4,5-d]azepine]	< 0.316
Cc1ccc(C(=O)N2CCC(c3nc4c(s3)CCN(C3CCC3)CC4)CC2)cc1 [Example E14, 6-Cyclobutyl-2-{1-[(4-methylphenyl)carbonyl]-4-piperidinyl}-5,6,7,8-tetrahydro-4H-[1,3]thiazolo[4,5-d]azepine]	< 1.26
Cc1cc(C(=O)N2CCC(c3nc4c(s3)CCN(C3CCC3)CC4)CC2)no1 [Example E15, 6-Cyclobutyl-2-{1-[(5-methyl-3-isoxazolyl)carbonyl]-4-piperidinyl}-5,6,7,8-tetrahydro-4H-[1,3]thiazolo[4,5-d]azepine]	< 1.26
O=C(c1csnn1)N1CCC(c2nc3c(s2)CCN(C2CCC2)CC3)CC1 [Example E16, 6-Cyclobutyl-2-[1-(1,2,3-thiadiazol-4-ylcarbonyl)-4-piperidinyl]-5,6,7,8-tetrahydro-4H-[1,3]thiazolo[4,5-d]azepine]	< 1.26
Cn1ccc(C(=O)N2CCC(c3nc4c(s3)CCN(C3CCC3)CC4)CC2)n1 [Example E17, 6-Cyclobutyl-2-{1-[(1-methyl-1H-pyrazol-3-yl)carbonyl]-4-piperidinyl}-5,6,7,8-tetrahydro-4H-[1,3]thiazolo[4,5-d]azepine]	< 1.26
Cc1cc(C(=O)N2CCC(c3nc4c(s3)CCN(C3CCC3)CC4)CC2)on1 [Example E18, 6-Cyclobutyl-2-{1-[(3-methyl-5-isoxazolyl)carbonyl]-4-piperidinyl}-5,6,7,8-tetrahydro-4H-[1,3]thiazolo[4,5-d]azepine]	< 1.26
Cc1ccc(N2CCC(c3nc4c(s3)CCN(C3CCC3)CC4)CC2)cn1 [Example E19, 6-Cyclobutyl-2-[1-(6-methyl-3-pyridinyl)-4-piperidinyl]-5,6,7,8-tetrahydro-4H-[1,3]thiazolo[4,5-d]azepine]	< 1.26
N#Cc1ccc(N2CCC(c3nc4c(s3)CCN(C3CCC3)CC4)CC2)cn1 [Example E20, 5-[4-(6-Cyclobutyl-5,6,7,8-tetrahydro-4H-[1,3]thiazolo[4,5-d]azepin-2-yl)-1-piperidinyl]-2-pyridinecarbonitrile]	< 0.316
NC(=O)c1ccc(N2CCC(c3nc4c(s3)CCN(C3CCC3)CC4)CC2)cn1 [Example E22, 5-[4-(6-Cyclobutyl-5,6,7,8-tetrahydro-4H-[1,3]thiazolo[4,5-d]azepin-2-yl)-1-piperidinyl]-2-pyridinecarboxamide]	< 0.316
CN(C)C(=O)c1ccc(N2CCC(c3nc4c(s3)CCN(C3CCC3)CC4)CC2)cn1 [Example E24, 5-[4-(6-Cyclobutyl-5,6,7,8-tetrahydro-4H-[1,3]thiazolo[4,5-d]azepin-2-yl)-1-piperidinyl]-N,N-dimethyl-2-pyridinecarboxamide]	< 1.26
Cc1ncccc1C(=O)N1CCC(c2nc3c(s2)CCN(C2CCC2)CC3)CC1 [Example E25, 6-Cyclobutyl-2-{1-[(2-methyl-3-pyridinyl)carbonyl]-4-piperidinyl}-5,6,7,8-tetrahydro-4H-[1,3]thiazolo[4,5-d]azepine]	< 1.26
CN1CCN(c2ccc(-c3nc4c(s3)CCN(C3CCC3)CC4)cc2)C1=O [Example E26, 1-[4-(6-Cyclobutyl-5,6,7,8-tetrahydro-4H-[1,3]thiazolo[4,5-d]azepin-2-yl)phenyl]-3-methyl-2-imidazolidinone]	< 0.316
O=C1NCCN1c1ccc(-c2nc3c(s2)CCN(C2CCC2)CC3)cc1 [Example E27, 1-[4-(6-Cyclobutyl-5,6,7,8-tetrahydro-4H-[1,3]thiazolo[4,5-d]azepin-2-yl)phenyl]-2-imidazolidinone]	< 1.26
CN1CCN(c2ccc(-c3nc4c(s3)CCN(C3CCCC3)CC4)cc2)C1=O [Example E28, 1-[4-(6-Cyclopentyl-5,6,7,8-tetrahydro-4H-[1,3]thiazolo[4,5-d]azepin-2-yl)phenyl]-3-methyl-2-imidazolidinone]	< 0.316
